Source: patent EP2433619A1, “Novel antitumoral agent and its therapeutic uses” (Intsel Chimos, priority 2010, dated 2012)
Where “and” joins values, the source holds several entries; their conditions need not be identical. Identical values can stand only once. Entries after “also recorded” stand apart in the source; their conditions may differ.

Assays:
tumour astrocyte lines = details: lines from primary cultures of astrocytes of newborn rat brain; cited from earlier work
[1] = test system: rat brain C6 glioblastoma cells; assay: intratumoral injection of liposomes in rats with intracerebral implantation of C6 glial cells (earlier studies); format: in vivo; details: compared with animals treated with liposomes only
Text: The effect of 7-β-hydroxy cholesteryl-3-β-oleate-ester on rat brain C6 glioblastoma cells was studied (Werthle M & All).
The ester of 7-β-hydroxy-cholesterol, the 7-β-hydroxy cholesteryl-3-β-oleate-ester (7-β-OHCOE) belongs to the oxysterols.

[2] = parameters: species or system rats and mice; details: in vivo
[3] = stability of Oxysterol solution to autoclave sterilisation; format: physicochemical
Procedure: A solution of 5 mg Oxysterol in 5 ml of a mixture Acetonitrile / isopropanol (44/56 v/v) is prepared then sterilized in the autoclave for 20 min at 121°C. The solution is analysed according to a […] method of oxysterol before and after autoclaving. The solution of oxysterol is subjected to a second autoclaving for 30minutes at 121°C. The areas of the peaks of oxysterol are determined and the yield after autoclaving is calculated in the following manner Yield: Area of oxysterol after autoclaving; Area of oxysterol before autoclaving x 100 [formula]

[4] = stability of active principle in the finished product to autoclaving; format: physicochemical; details: for Content in oxysterol: samples PE1-PE3, listed as oxysterol
Procedure: A batch has been subjected to a dosage before and after autoclaving 20 minutes at 121 °C, to determine whether oxysterol also resists to autoclaving. Three samples have been analysed :
The autoclaving yield is calculated in the following manner Yield autoclaving: Content oxysterol after autoclaving; Content oxysterol before autoclaving x 100 [formula]

glioma C6 Cells = assay: single stereotactic cerebral intra-ventricular injection in rats implanted with glioma C6 cells; format: in vivo
[5] = test system: Advanced glioblastoma, Grade III o IV astrocytoma, Anaplastic oligodendroglioma; assay: compassionate clinical trial, stereotactic administration of liposomal form; format: in vivo, patients; details: 1 to 3 doses, total 0.05 to 3.2mg/patient
[6] = test system: rat brain C6 glioblastoma cells; details: injection of liposomes containing the ester vs liposomes without oxysterol (Werthle M & All); cited from earlier work
[7] = 2 autoclavings, second for 30 minutes at 121°C
[8] = after autoclaving 20 minutes at 121 °C

CC(C)CCC[C@@H](C)[C@H]1CC[C@H]2[C@@H]3[C@@H](O)C=C4C[C@@H](O)CC[C@]4(C)[C@H]3CC[C@]12C [7-β-OH-CH, 7 beta-hydroxy-cholesterol]
lethal effect / cytotoxicity (tumour astrocyte lines): lethal effect

CCCCCCCC/C=C\CCCCCCCC(=O)O[C@H]1CC[C@@]2(C)C(=C[C@H](O)[C@H]3[C@@H]4CC[C@H]([C@H](C)CCCC(C)C)[C@@]4(C)CC[C@@H]32)C1 [7-β-OHCOE, 7-β-hydroxy cholesteryl-3-β-oleate-ester]
tumor growth [1]: significant regression of tumor growth; also recorded: spectacular regression of tumour growth
metabolism [2]: metabolized to cholesterol within the cerebral parenchyma
noxious effects [2]: no noxious effects
Area oxysterol after autoclaving ([3]; 1 autoclaving, 20 min at 121°C): 5517,4
Yield of autoclaving ([3]; 1 autoclaving, 20 min at 121°C): 100,2%
Area oxysterol before autoclaving ([3]; 1 autoclaving, 5 mg in 5 ml Acetonitrile / isopropanol (44/56 v/v)): 5506,5
Area oxysterol before autoclaving ([3]; 2 autoclavings): 5666,1
Area oxysterol after autoclaving [3, 7]: 5716,3
Yield of autoclaving [3, 7]: 100,9%
Content in oxysterol, Average [4, 8]: 1,43 mg/g
Content in oxysterol [4, 8]: 1,42 mg/g and 1,41 mg/g and 1,45 mg/g
average yield of autoclaving ([4]; autoclaving 20 minutes at 121 °C): 97,9%
Content in oxysterol, Average ([4]; before autoclaving): 1,46 mg/g
Content in oxysterol ([4]; before autoclaving): 1,45 mg/g and 1,46 mg/g
survival (glioma C6 Cells; injection of liposomal form in experimental animals): did affect neither survival nor body weight
total tumoral volume, mean value (glioma C6 Cells; liposomal, injected 3 days after implantation, sacrificed 10 days after treatment, reduced from 4.4mm3): 0.8 mm3
body weight (glioma C6 Cells; rat, in vivo): did affect neither survival nor body weight
partial or total remission observed ([5]; 11 patients included): 3 patients
side effects ([5]; 11 patients): No significant side effects were observed
tumor volume [6]: marked decrease in tumor volume
